In assay [1] the target is synaptic vesicle protein 2A (SV2A) (Homo sapiens, UniProt Q7L0J3). Particulars: specific site in the CNS; cited from earlier work.
Assay [2] has as its system aMCI subjects. Further details: species or system human. Particulars: in vivo.
The test system of assay [3] is aMCI subjects. Briefly: Explicit 3-alternative forced choice task (lure stimuli). The class given is in vivo, human. On the procedure:
As described above, the drug treatment period is the two weeks preceding Visit 1 or 2 (with the two week period preceding the other Visit being the placebo phase). […]
The activity of the subject's medial temporal lobe is measured by functional MRI during the subject's participation in an explicit 3-alternative forced choice task, where participants view novel, repeated and similar (“lure”) stimuli. The Psychophysics Toolbox extensions in Matlab 7.0 (The MathWorks, Natick, Mass.) is used for stimulus presentation and behavioral data collection. Stimuli are color photographs of common objects. Each participant undergoes a series of testing runs during the functional imaging sessions, each run consisting of a mix of three types of image pairs: similar pairs, identical pairs and unrelated foils. These image pairs are fully randomized throughout the run and presented individually as a series of images (see FIG. 10A). Participants are instructed to make a judgment as to whether each object seen is new, old or similar. Of critical interest are the participants' responses when presented with the second of the pair of similar objects (the “lure”; see FIG. 10B). The correct identification by the subject of lure stimuli as “similar,” provides behavioral evidence of pattern separation, i.e., the separation of similar experiences into distinct non-overlapping representations. […]
As described above, the drug treatment period is the two weeks preceding Visit 1 or 2 (with the two week period preceding the other Visit being the placebo phase). […] For the subjects receiving the 62.5 mg BID drug treatment, a quarter of a scored 250 mg tablet of levetiracetam is used to achieve a dose of 62.5 twice a day, i.e., 125 mg/day which is approximately 1.5 mg/kg/day.
The activity of the subject's medial temporal lobe is measured by functional MRI during the subject's participation in an explicit 3-alternative forced choice task, where participants view novel, repeated and similar (“lure”) stimuli. […]

The subject of another assay is aged-impaired (AI) rats. Briefly: Radial Arm Maze task with one-hour delay, levetiracetam and/or valproate. It counts as in vivo, rat. Particulars: for effective in reducing the number of errors: levetiracetam on its own.
The next assay relates to somatostatin in DG hilus. Briefly: Immunohistochemistry of SOM-immunoreactive hilar neurons after chronic levetiracetam. The class given is in vivo, rat. The note with it: levetiracetam 10 mg/kg/day, osmotic minipumps, four weeks, aged-impaired rats; AI-LEV vs AI-VEH p<0.01.

“Also recorded” adds a separate entry of the source.

synaptic vesicle protein 2A (SV2A), sequence (Q7L0J3 whole entry, species assumed): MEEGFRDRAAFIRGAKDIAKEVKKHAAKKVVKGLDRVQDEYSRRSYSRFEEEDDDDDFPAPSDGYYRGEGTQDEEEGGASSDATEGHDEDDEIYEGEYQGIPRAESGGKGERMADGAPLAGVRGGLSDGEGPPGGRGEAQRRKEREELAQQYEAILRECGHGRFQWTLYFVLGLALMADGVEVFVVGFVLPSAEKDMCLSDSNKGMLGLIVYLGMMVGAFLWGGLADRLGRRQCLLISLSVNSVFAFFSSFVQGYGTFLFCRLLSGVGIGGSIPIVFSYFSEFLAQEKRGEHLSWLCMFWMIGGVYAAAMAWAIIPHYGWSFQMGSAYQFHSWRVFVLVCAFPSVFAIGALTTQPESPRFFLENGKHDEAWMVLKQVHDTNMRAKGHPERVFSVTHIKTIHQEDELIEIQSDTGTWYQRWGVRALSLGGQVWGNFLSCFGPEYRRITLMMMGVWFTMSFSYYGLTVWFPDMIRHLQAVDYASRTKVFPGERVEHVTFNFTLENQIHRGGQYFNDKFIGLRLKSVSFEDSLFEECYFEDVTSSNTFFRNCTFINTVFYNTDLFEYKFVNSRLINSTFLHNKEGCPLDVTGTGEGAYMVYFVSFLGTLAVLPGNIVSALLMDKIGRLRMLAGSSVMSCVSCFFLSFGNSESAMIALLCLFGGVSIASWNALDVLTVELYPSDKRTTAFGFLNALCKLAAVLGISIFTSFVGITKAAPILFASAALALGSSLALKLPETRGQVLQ

Consider `CC[C@@H](C(N)=O)N1CCCC1=O` [levetiracetam, (2S)-2-(2-oxopyrrolidin-1-yl)butanamide], for which the “binding to SV2A” value in assay [1] is listed as “binds”. In addition, in the assay with aMCI subjects [2], the “performance in Buschke Selective Reminding Test-Delayed Recall, Benton Visual Retention Test, Verbal Paired Associates Test-Recognition and -Delayed Recall” value is “fail to rescue performance”. For the same compound, the “performance in the memory task (similar vs old responses to lures)” value in the assay on aMCI subjects [3] (levetiracetam 62.5 mg BID for two weeks vs placebo, p=0.041) is “improves significantly”; in the assay with aMCI subjects [3] (levetiracetam 125 mg twice a day for two weeks vs placebo, p=0.039), “improves significantly”; in the assay on aMCI subjects [3] (levetiracetam 250 mg BID for two weeks vs placebo, p=0.2396), “does not significantly improve”. Also, the “effective doses in the animal model” value in the assay on aged-impaired (AI) rats (AI rats, given acutely) was in the range of 5 to 10 mg/kg. Also, in the assay with aged-impaired (AI) rats (levetiracetam 20 mg/kg), the “performance of AI rats in the radial maze task” value is given as “fails to improve the performance”. Further, the “effective in reducing the number of errors” value in the assay with aged-impaired (AI) rats (1.25 mg/kg or 2.5 mg/kg i.p.) is reported as “not”; with aged-impaired (AI) rats (5-10 mg/kg i.p.), “effective”. Besides, the “levels of somatostatin (SOM-immunoreactive hilar neurons) in DG hilus” value in the assay on somatostatin in DG hilus is given as “restores the levels of somatostatin; also recorded: restores sematostatin”.

The record behind these values is US10806717B2, “Methods and compositions for improving cognitive function” (The Johns Hopkins University, priority 2013, dated 2020).
